Consider five molecules from paper PMC5128750, “Structure–Activity Relationship Studies Using Natural and Synthetic Okadaic Acid/Dinophysistoxin Toxins” (Marine Drugs, 2016).

Series [1] has as its system PP2a. Conditions: relative to OA, using data from Aune et al. and Takai et al.; cited from earlier work.
The test system of series [2] is PP1. Type of series: biochemical, rabbit.
In series [3] the test system is mice. Conditions: relative to OA, cited from earlier work; for TEF (European Food Safety Authority): based on LD50 values from exposed mice.
The target in series [4] is T1, PP5 (Homo sapiens, UniProt P53041).
T1 sequence (P53041 1-499): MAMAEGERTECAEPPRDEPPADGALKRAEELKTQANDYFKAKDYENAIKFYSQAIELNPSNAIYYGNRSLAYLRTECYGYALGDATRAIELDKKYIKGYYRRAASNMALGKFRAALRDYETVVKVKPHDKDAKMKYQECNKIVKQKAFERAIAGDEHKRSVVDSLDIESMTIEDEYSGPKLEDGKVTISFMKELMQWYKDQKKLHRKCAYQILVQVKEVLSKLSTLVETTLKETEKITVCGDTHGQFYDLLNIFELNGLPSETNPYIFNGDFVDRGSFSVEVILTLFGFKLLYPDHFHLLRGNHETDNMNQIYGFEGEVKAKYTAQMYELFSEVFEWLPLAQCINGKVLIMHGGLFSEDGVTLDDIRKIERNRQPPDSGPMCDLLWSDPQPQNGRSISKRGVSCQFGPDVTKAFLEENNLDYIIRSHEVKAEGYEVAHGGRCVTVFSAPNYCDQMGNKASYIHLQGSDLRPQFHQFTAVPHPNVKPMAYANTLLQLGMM
Kind of series: PP5 inhibition, fluorimetric DiFMUP assay. Type of series: biochemical. Also on record: purchased EMD Millipore Corporation 14-778; host or cells: E. coli. The settings on record: for IC50: PP5, DiFMUP 50 μM; for Rel. Potency / TEF: PP5, relative to OA. How it is done: Figure 3 Effect of various DSP toxins on protein phosphatase activity. The activities of protein phosphatases (A) PP2a, (B) PP1, and (C) PP5 were assessed in the presence of various concentrations of natural OA, natural DTX1, natural DTX2, synthetic DTX2, or synthetic 2-epi-DTX2. All data (mean ± SE; n = 3 or 4) were normalized to the control. […], variable slope, non-linear dose-response analysis was performed and IC50 and 95% confidence interval values were calculated (Table 2).
Preliminary studies were conducted by Millipore (EMD Millipore Corporation, Darmstadt, Germany) using their PhosphataseProfiler that assessed the activities of 21 human and yeast phosphatases in the presence of DTX2. Phosphatase sensitivities to DTX2 were more extensively characterized using 96-well fluorescence-based assays in the presence of various natural and synthetic OA/DTXs. Briefly, the assay tests the ability of toxins to inhibit the activity of purified PP2A (EMD Millipore Corporation, Darmstadt, Germany, cat. #14-111; human red blood cells), purified PP1 (EMD Millipore Corporation, Darmstadt, Germany, cat. #14-110; rabbit skeletal muscle), or purified PP5 (EMD Millipore Corporation, Darmstadt, Germany, cat. #14-778; recombinant enzyme expressed in E. coli cells) against the fluorimetric substrate, 6,8-difluro-4-methyl umbelliferyl phosphate (DiFMUP; 50 μM final) (Invitrogen ThermoFisher Scientific, Waltham, MA, USA, cat. #D6567). DiFMUP solutions were preincubated with toxins or vehicle controls (all containing 1% DMSO final) for 10 min prior to addition of one of the PP enzymes (0.4, 0.4, and 0.02 units/well for PP2a, PP1, and PP5). PP2a assays were performed in Tris-HCl (40 mM, pH 8.4), MgCl2 (34 mM), EDTA (4 mM), and DTT (4 mM), PP1 assays were performed in Tris-HCl (100 mM, pH 7.5), MnCl2 (0.5 mM), EDTA (0.2 mM), DTT (4 mM) and BSA (0.4 mg/mL), and PP5 assays were performed in HEPES (57 mM, pH 7.2), NaCl (150 mM), EDTA (1 mM), MnCl2 (1 mM), DTT (0.167 mM), glycerol (0.83%), BSA (0.167 mg/mL), Brij-35 (0.002%) (EMD Millipore Corporation, Darmstadt, Germany, pers. comm.). All reactions (50 μL) were performed in black, 96-well, half area plates (Corning Incorporated, Corning, NY, USA) for 2 h at 35 °C with 5 s orbital shaking (ca. 600 rpm) just prior to each reading (every 2 min). PP activity was determined by measuring the fluorescence (excitation 360 nm, emission 470 nm) of each well using a fluorometric plate reader (Fluostar, BMG Lab Technologies, Ortenberg, Germany). All data (mean ± SE, n ≥ 3) are presented as normalized percentages relative to vehicle controls (100%). IC50 determinations were calculated using four-parameter, variable slope, non-linear regression analysis (GraphPad Prism, ver. 5.0c, San Diego, CA, USA).

Series [5] relates to Jurkat T lymphocyte cells. Briefly: cells. Type of series: cell-based, human.
The target of series [6] is T2, PP2A (Homo sapiens, UniProt P67775).
T2 construct: purified PP2A (EMD Millipore Corporation, Darmstadt, Germany, cat. #14-111; human red blood cells); purchased EMD Millipore Corporation 14-111; host or cells: human red blood cells (tissue-purified)
T2 sequence (P30153 2-589): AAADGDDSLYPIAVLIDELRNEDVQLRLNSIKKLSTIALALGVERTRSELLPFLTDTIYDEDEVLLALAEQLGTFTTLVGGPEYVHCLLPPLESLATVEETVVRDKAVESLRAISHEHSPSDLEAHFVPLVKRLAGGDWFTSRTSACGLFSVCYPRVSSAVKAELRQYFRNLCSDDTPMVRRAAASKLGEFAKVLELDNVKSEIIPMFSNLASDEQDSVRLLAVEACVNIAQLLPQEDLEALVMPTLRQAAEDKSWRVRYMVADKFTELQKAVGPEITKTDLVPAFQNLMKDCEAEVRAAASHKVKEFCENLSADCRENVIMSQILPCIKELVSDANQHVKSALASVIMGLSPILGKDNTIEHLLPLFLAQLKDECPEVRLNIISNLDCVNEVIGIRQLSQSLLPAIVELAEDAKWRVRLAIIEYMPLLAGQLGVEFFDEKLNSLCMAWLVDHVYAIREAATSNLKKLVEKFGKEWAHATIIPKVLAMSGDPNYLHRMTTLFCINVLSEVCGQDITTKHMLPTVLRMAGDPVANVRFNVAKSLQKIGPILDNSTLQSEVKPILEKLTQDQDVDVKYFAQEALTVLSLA
T2 sequence (P67775 whole entry): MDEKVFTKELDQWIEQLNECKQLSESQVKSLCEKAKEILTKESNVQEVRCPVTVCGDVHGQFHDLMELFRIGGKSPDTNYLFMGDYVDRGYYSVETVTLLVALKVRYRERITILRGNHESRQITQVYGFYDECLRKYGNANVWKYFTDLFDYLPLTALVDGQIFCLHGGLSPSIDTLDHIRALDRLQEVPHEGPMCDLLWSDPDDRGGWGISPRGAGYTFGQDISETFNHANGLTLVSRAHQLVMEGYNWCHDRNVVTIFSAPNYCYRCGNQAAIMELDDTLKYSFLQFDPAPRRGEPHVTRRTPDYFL
Kind of series: biochemical. Type of series: biochemical.

Series [7] concerns CD45, DUSP22, HePTP, LMPTP-A, LMPTP-B, MKP5, PTPMEG1, PTP-MEG2, PTP-1B, PTPN22, PTPβ, RPTPμ, SHP-1, SHP-2, TCPTP, TMDP, VHR, YopH. Type of series: biochemical, human and yeast. Conditions: 200 nM, n = 2.
The target in series [8] is T1, PP5. Type of series: biochemical. Also on record: purchased EMD Millipore Corporation (PhosphataseProfiler service). The settings on record: 200 nM, n = 2.
In series [9] the target is T3, PP1α (Homo sapiens, UniProt P62136).
T3 construct: purchased EMD Millipore Corporation (PhosphataseProfiler service)
T3 sequence (P62136 whole entry): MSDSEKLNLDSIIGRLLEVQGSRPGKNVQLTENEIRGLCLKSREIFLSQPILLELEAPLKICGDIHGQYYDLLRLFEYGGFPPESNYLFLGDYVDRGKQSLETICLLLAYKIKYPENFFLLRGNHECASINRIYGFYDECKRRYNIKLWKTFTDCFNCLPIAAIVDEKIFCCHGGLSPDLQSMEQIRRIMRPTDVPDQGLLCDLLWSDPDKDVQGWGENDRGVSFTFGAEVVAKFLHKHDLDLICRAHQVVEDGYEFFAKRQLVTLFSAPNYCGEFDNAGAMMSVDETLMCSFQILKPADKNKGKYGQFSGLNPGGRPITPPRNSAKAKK
Type of series: biochemical. The settings on record: 200 nM, n = 2.

For series [10], the target named is T2, PP2A. Type of series: biochemical. The settings on record: 200 nM, n = 2.

Where “and” joins values, the source holds several entries; their conditions need not be identical. Identical values can stand only once. Like-named read-outs stand apart in the source and are kept apart here.

For `C=C1C(O)C2OC3(CCC(C=CC(C)C4CC(C)=CC5(OC(CC(C)(O)C(=O)O)CCC5O)O4)O3)CCC2OC1C(O)CC(C)C1OC2(CCC1C)OCCCC2C` (centres unmarked) [nat. DTX1, Dinophysistoxin-1], in [1], the “TEF by Huhn et al.” value is 1.58. Besides, the IC50 (as a rule, the concentration needed to halve the response being measured) in series [2] is 34.8 nM; in series [4], 1.3 nM; in [6], 0.31 nM and 0.306 nM. The “Rel. Potency / TEF” value is 0.72 and 0.724 in series [2]; 1.8 and 1.769 in series [4]; 1.5 and 1.523 in series [6]. Besides, the “TEF (European Food Safety Authority)” value in series [3] is 1. For the same molecule, the “Rel. Potency (as per 48 h Data) / TEF” value in series [5] is 0.9 and 0.87. Further, the EC50 (as a rule, the concentration at which the effect is half-maximal) in series [5] (Homo sapiens, Jurkat, 24 h) stood at 24.6 nM; in series [5] (Homo sapiens, Jurkat, 48 h), 22.2 nM; in [5] (Homo sapiens, Jurkat, 72 h) it was 11.4 nM.

On to `C=C1C(O)C2OC3(CCC(C=CC(C)C4CC(C)=CC5(OC(CC(C)(O)C(=O)O)CCC5O)O4)O3)CCC2OC1C(O)CC(C)C1CCCC2(OCCCC2C)O1` (centres unmarked) [nat. DTX2, Dinophysistoxin-2], for which the “Inhibition of phosphatase activity” value was “only PP1α, PP2a, and PP5 were inhibited” in [7]; “inhibited” in series [8]; “inhibited” in [9]; “inhibited” in [10]. Also, the “TEF by Huhn et al.” value in [1] is reported as 0.48. Besides, the half-maximal inhibitory concentration (IC50) in series [2] was 76.4 nM; in [4] it was 5.2 nM and 5.25 nM; in series [6] it was 0.99 nM and 0.987 nM. For the same molecule, the “Rel. Potency / TEF” value in series [2] stood at 0.330; in series [4] it was 0.438; in series [6], 0.472. The “TEF (European Food Safety Authority)” value in series [3] is recorded as 0.6. The “TEF proposed by Aune et al.” value in series [3] is 0.6. The “Rel. Potency (as per 48 h Data) / TEF” value in series [5] was 1.6 and 1.58.

Regarding `C=C1[C@@H](O)[C@@H]2O[C@]3(CC[C@H](/C=C/[C@@H](C)[C@@H]4CC(C)=C[C@@]5(O[C@H](C[C@@](C)(O)C(=O)O)CC[C@H]5O)O4)O3)CC[C@H]2O[C@@H]1[C@@H](O)C[C@H](C)[C@H]1O[C@@]2(CCCCO2)CC[C@H]1C` [nat. OA, Okadaic Acid], the IC50 in [2] was 25.2 nM; in series [4] it was 2.3 nM; in series [6] (IC50), 0.47 nM and 0.466 nM. Besides, the “Rel. Potency / TEF” value in series [2], in [4] and in series [6] was 1.000 each time. Also, the “TEF (European Food Safety Authority)” value in series [3] is 1. The “Rel. Potency (as per 48 h Data) / TEF” value in [5] stood at 1.000. Besides, the EC50 in [5] (Homo sapiens, Jurkat, 24 h) came out at 32.8 nM; in series [5] (Homo sapiens, Jurkat, 48 h) it was 19.5 nM; in series [5] (Homo sapiens, Jurkat, 72 h), 9.16 nM.

As to `C=C1C(O)C2OC3(CCC(C=CC(C)C4CC(C)=CC5(OC(CC(C)(O)C(=O)O)CCC5O)O4)O3)CCC2OC1C(O)CC(C)C1CCCC2(OCCCC2C)O1` (stereo not drawn) [syn. 2-epi-DTX2, 2-epi-dinophysistoxin-2], in series [2], the IC50 was 3110 nM and the “Rel. Potency / TEF” value worked out at 0.008. In addition, in series [4], it took 541 nM to reach half-maximal inhibition (IC50) and the “Rel. Potency / TEF” value is reported as 0.004. Moreover, in [5], the EC50 is 4750 nM and 4260 nM and 3740 nM; the “Rel. Potency (as per 48 h Data) / TEF” value stood at 0.004. Moreover, in series [6], the IC50 worked out at 137 nM and the “Rel. Potency / TEF” value is 0.003.

For the molecule `C=C1C(O)C2OC3(CCC(C=CC(C)C4CC(C)=CC5(OC(CC(C)(O)C(=O)O)CCC5O)O4)O3)CCC2OC1C(O)CC(C)C1CCCC2(OCCCC2C)O1` (stereo not drawn) [syn. DTX2, Dinophysistoxin-2], in [2], the IC50 was 82.6 nM and the “Rel. Potency / TEF” value turned out to be 0.305. Further, in [4], the IC50 is 4 nM and 3.95 nM; the “Rel. Potency / TEF” value came to 0.582. Besides, in series [5], the EC50 is 21.8 nM and 18.2 nM and 15.4 nM; the “Rel. Potency (as per 48 h Data) / TEF” value was 1.1 and 1.07. Moreover, in series [6], half-maximal inhibition (IC50) was put at 1.35 nM and the “Rel. Potency / TEF” value was 0.345.
